Where “and” joins values, the source holds several entries; their conditions need not be identical. Equal values may be shown once.
What follows are molecules tested against SARS-CoV-2 Main Protease (SARS-CoV-2) (UniProt P0DTD1).
For O=C(Cc1cc(Cl)cc(Nc2ccc([N+](=O)[O-])c3ccccc23)c1)Nc1cncc2ccccc12, the IC50 was 2.14 µM.
O=C(Cc1cc(Cl)cc(-c2nnc[nH]2)c1)Nc1cncc2ccccc12 was tested, and the IC50 was 5.3 µM.
Work on O=c1[nH]c2ccc(-c3csc(NCc4ccc(F)cc4)n3)cc2o1 yielded an IC50 of over 99.5 µM.
Work on O=C(CCl)N1CCN(Cc2cnc(Cc3ccccc3)s2)CC1 yielded an IC50 of 29.8 µM.
Cc1cc2c(cc1C)C(C(=O)N1CCCCC1c1cn[nH]c1)CO2 (configuration not stated) showed an IC50 of over 99.5 µM.
In the case of O=C(NCCc1cccc(F)c1)C(c1cccnc1)N(C(=O)c1cnc[nH]1)c1ccc2c(c1)COCC2 (configuration not stated), the IC50 is reported as over 99 µM.
N#Cc1c(Cl)cccc1Nc1cc(Cl)cc(CC(=O)Nc2cncc3ccccc23)c1 showed an IC50 of 1.93 µM.
CC(C)(C)c1ccc(N(C(=O)c2cccc(C#N)c2)C(C(=O)NCCc2cccc(F)c2)c2cccnc2)cc1 (configuration not stated) gave an IC50 of over 99.5 µM.
COc1c(Cl)cccc1OCCNC(=O)c1cc(=O)[nH]c2ccccc12 gave an IC50 of 6.39 µM.
For O=S(=O)(c1cc2c(cc1OCc1ccccc1)OCO2)N1CCOCC1, the IC50 was over 99.5 µM.
Cc1cc(O)c(C(C(=O)NCCc2cccc(F)c2)N(C(=O)c2cocn2)c2ccc(C(C)(C)C)cc2)c(=O)[nH]1 (configuration not stated) gave an IC50 of over 99.5 µM.
O=C(NCCc1cccc(F)c1)C(c1cccnc1)N(C(=O)c1cocn1)C1Cc2ccccc21 (configuration not stated) was tested, and the IC50 was over 99.5 µM.
O=C(Cc1cccc(Cl)c1)NC1COCc2ccccc21 (configuration not stated) gave an IC50 of 69 µM.
With Cc1ccncc1NC(=O)Cc1cc(Cl)cc(OC2COC2)c1 the IC50 was 16 µM.
For O=C(Cc1cc(Cl)cc(NCCc2ccc(Cl)cc2Cl)c1)Nc1cncc2ccccc12, the IC50 was 3.91 µM.
With O=C(CN1CC(C(=O)Nc2cncc3ccccc23)c2cc(Cl)ccc2C1=O)NCC1CCC1 (configuration not stated) the IC50 was 0.107 µM.
Molecule N#CC1CN(S(=O)(=O)N2Cc3ccc(Cl)cc3C3(CCN(c4cncc5ccccc45)C3=O)C2)C1 (configuration not stated) has an IC50 of 0.181 µM.
Work on O=C(Cc1cc(Cl)cc(Nc2ccc(Br)c(C(F)(F)F)c2)c1)Nc1cncc2ccccc12 yielded an IC50 of 2.31 µM.
Work on O=C(NCCc1cccc(F)c1)C(c1cccnc1)N(C(=O)c1cocn1)C1CCc2cc(F)ccc21 (configuration not stated) yielded an IC50 of over 99.5 µM.
Work on Cn1ccn2c(CNc3nc4ccccc4s3)nnc2c1=O yielded an IC50 of over 99.5 µM.
CCC(=O)Nc1ccc(N(Cc2ccccc2)C(=O)n2nnc3ccccc32)cc1 showed an IC50 of over 99.5 µM.
For O=C(Cc1cc(Cl)cc(-n2c(C3CCNCC3)nc3ccccc32)c1)Nc1cncc2ccccc12, the IC50 was 2.24 µM.
In the case of CC(C)CS(=O)(=O)N1Cc2ccc(Cl)cc2C(C(=O)Nc2cncc3ccc(C(C)(C)O)cc23)C1 (configuration not stated), the IC50 is reported as 1.22 µM.
With O=C(Nc1cnc2nccn2c1)c1cn2c(Br)cnc2s1 the IC50 was over 99.5 µM.
O=C(Cc1cc(Cl)cc(N2CCCCC2)c1)Nc1cncc2ccccc12 was tested, and the IC50 was over 9.95 µM.
With CS(=O)(=O)CCN1CC(C(=O)Nc2cncc3ccccc23)c2cc(Cl)ccc2C1=O (configuration not stated) the IC50 was 0.177 µM.
Work on O=C(NCCc1cccc(F)c1)C(c1cccnc1)N(C(=O)c1cocn1)c1ccc2scnc2c1 (configuration not stated) yielded an IC50 of 84 µM.
With O=C(Nc1cccc2c[nH]nc12)C1CCOc2ccc(Cl)cc21 (configuration not stated) the IC50 was over 99.5 µM.
With O=C(Nc1cncc2ccccc12)C1(CO)CCOc2ccc(Cl)cc21 (configuration not stated) the IC50 was 1.09 µM.
NCc1cn(CC(=O)N(CC(=O)N2CCNCC2)c2ccc(-c3ccccc3)cc2)nn1 gave an IC50 of over 99.5 µM.
With CN(C)C(=O)C[C@@]1(C(=O)Nc2cncc3ccccc23)CCOc2ccc(Cl)cc21 (stereo in doubt) the IC50 was 20.5 µM.
COc1cc(Cl)nc(Nc2cc(Cl)cc(CC(=O)Nc3cncc4ccccc34)c2)n1 gave an IC50 of 0.504 µM.
O=C(NCCc1cccc(F)c1)C(c1cccnc1)N(C(=O)c1cocn1)C1COC2(CCCC2)C1 (configuration not stated) was tested, and the IC50 was over 99.5 µM.
O=C(O)CC1(C(=O)Nc2cncc3ccccc23)CCOc2ccc(Cl)cc21 (configuration not stated) was tested, and the IC50 was 31.4 µM and > 9.95 µM.
For COc1ccccc1OCCNC(=O)C1CC(=O)Nc2ccccc21 (configuration not stated), the IC50 was over 99.5 µM.
COC(=O)CN1Cc2ccc(Cl)cc2C(C(=O)Nc2cncc3ccccc23)C1 (configuration not stated) gave an IC50 of 1.55 µM.
O=C(Cc1cc(Cl)cc(Nc2ncccc2C(F)(F)F)c1)Nc1cncc2ccccc12 gave an IC50 of 1.94 µM.
In the case of O=C(NC1(C(=O)Nc2cncc3ccccc23)CCOc2ccc(Cl)cc21)C1CCC(C(=O)N2CCCC2)O1 (configuration not stated), the IC50 is reported as 2.81 µM.
O=C(CCl)N1CCN(C(c2ccccc2)c2ccccc2)CC1 gave an IC50 of 1.98 µM.
For Cc1ccncc1NC(=O)Cc1cc(Cl)cc(NCC(C)(C)C#N)c1, the IC50 was 36.5 µM.
N[C@@H](Cc1ccc(O)cc1)C(=O)Nc1cc(Cl)cc(CC(=O)Nc2cncc3ccccc23)c1 (stereo in doubt) showed an IC50 of 2.51 µM.
For CN1CCN(c2ccccc2Nc2cc(Cl)cc(CC(=O)Nc3cncc4ccccc34)c2)CC1, the IC50 was 2.09 µM.
Work on O=C1CC(NC(=O)Cc2cccc(Cl)c2)C(=O)N1 (configuration not stated) yielded an IC50 of over 99.5 µM.
Cc1nc2cc(C(=O)NNc3ccnc4cccnc34)ccc2o1 was tested, and the IC50 was over 99.5 µM.
Work on CCCCOc1ccc(Cl)cc1CC(=O)Nc1cnccc1C yielded an IC50 of 24.8 µM.
In the case of CNC(=O)CN1Cc2ccc(Cl)cc2[C@]2(CCN(c3cncc4c3CCCC4)C2=O)C1 (stereo in doubt), the IC50 is reported as over 99.5 µM.
O=C1C(=O)N(Cc2ccccc2)c2ccc([N+](=O)[O-])cc21 showed an IC50 of over 99.5 µM.
With O=C(Nc1ccc(F)cc1)[C@@H](c1ccccc1)N1Cc2ccccc2C1=O (stereo in doubt) the IC50 was over 99.5 µM.
Work on CC(C)(C)c1ccc(N(C(=O)c2cocn2)C(C(=O)NC2CCOC2)c2cccnc2)cc1 (configuration not stated) yielded an IC50 of 2.77 µM.
For C=CC(=O)N1CCN(S(=O)(=O)c2cccc(F)c2)CC1, the IC50 was over 99.5 µM.
With O=C(CCl)Nc1cccc(N2CCCC2=O)c1 the IC50 was 72 µM and 68.7 µM.
Molecule C=CC(=O)N(c1ccc(C(C)(C)C)cc1)C(C(=O)NCC)c1cccnc1 (configuration not stated) has an IC50 of 45.5 µM.
Molecule C=CC(=O)N(c1ccc(C(C)(C)C)cc1)C(C(=O)NCCc1cccc(F)c1)c1cncc(C#N)c1 (configuration not stated) has an IC50 of 7.48 µM.
In the case of CC(=O)N1CCN(CC(=O)Nc2cnccc2C2CC2)CC1, the IC50 is reported as over 99.5 µM.
CC(C)NC(=O)CN1CC(C(=O)Nc2cncc3ccccc23)c2cc(Cl)ccc2C1=O (configuration not stated) was tested, and the IC50 was 0.389 µM.
In the case of N#Cc1cccc(NC(=O)Nc2cncc(N)c2)c1, the IC50 is reported as 54.3 µM.
O=C(Cn1nnc2ccccc21)N(CC1CCOC1)c1ccc(C2CCNCC2)cc1 (configuration not stated) showed an IC50 of over 99.5 µM.
Molecule CNC(=O)CN1C[C@@]2(CC(=O)N(c3cncc4ccccc34)C2=O)c2cc(Cl)ccc2C1=O (stereo in doubt) has an IC50 of 0.123 µM.
With O=C1O[C@]2(CCOc3ccc(Cl)cc32)C(=O)N1c1cncc2ccccc12 (stereo in doubt) the IC50 was 80.9 µM and > 9.95 µM.
CCn1c2ccccc2c2cc(Nc3cc(Cl)cc(CC(=O)Nc4cncc5ccccc45)c3)ccc21 showed an IC50 of 2.73 µM.
For O=C(Cc1cc(Cl)cc(Oc2cccnc2)c1)Nc1cncc2ccccc12, the IC50 was 1.14 µM and 1.57 µM and 1.17 µM.
Cn1ncc(NC(=O)C2CCOc3ccc(Cl)cc32)c1C(F)F (configuration not stated) showed an IC50 of over 99.5 µM.
CC(=O)C(=O)N1CCN(Cc2cccc(Cl)c2)CC1 was tested, and the IC50 was over 99.5 µM.
With O=C(Cc1ccc(Cl)c(F)c1)Nc1cncc2ccccc12 the IC50 was 2.03 µM.
Molecule CC(C)(C)c1ccc(N(C(=O)c2c[nH]c(=O)cn2)C(C(=O)NCCc2cccc(F)c2)c2cccnc2)cc1 (configuration not stated) has an IC50 of 77.1 µM.
In the case of O=C(Nc1ccc2ccccc2c1)[C@@H]1CN(C(=O)CCl)CCN1S(=O)(=O)c1ccsc1 (stereo in doubt), the IC50 is reported as 0.523 µM.
Cc1cccc(C2CCCCN2C(=O)C(C)c2cncnc2)c1C (configuration not stated) was tested, and the IC50 was over 99.5 µM.
Molecule Cc1nnc(CNc2ccc3nnc(-c4ccccc4)n3n2)o1 has an IC50 of over 99.5 µM.
O=C(NC1CCCCC1)[C@@H]1CN(C(=O)CCl)CCN1S(=O)(=O)c1ccsc1 (stereo in doubt) gave an IC50 of 1.14 µM.
With COCc1nc(C)c(C(=O)N(c2ccc(C(C)(C)C)cc2)C(C(=O)NCCc2cccc(F)c2)c2cccnc2)s1 (configuration not stated) the IC50 was over 99.5 µM.
O=C(Cc1cncc2ccccc12)Nc1cccc(Cl)c1 gave an IC50 of 6.47 µM.
Cc1ccncc1NC(=O)Cc1cncc(Cl)c1 gave an IC50 of 46.4 µM.
Cc1ccc(C(Cc2ccccc2)C(=O)Nc2nnn3ccccc23)cc1 (configuration not stated) was tested, and the IC50 was over 99.5 µM.
With C[C@@]1(C(=O)Nc2cncc3ccccc23)CCNc2cc(Cl)c(Cl)cc21 (stereo in doubt) the IC50 was 0.234 µM and 0.979 µM.
CCN(c1ccccc1)S(=O)(=O)c1ccc(OC)c(NC(=O)CCl)c1 was tested, and the IC50 was 3.23 µM.
O=C(Cc1cc(Cl)cc(Nc2ncc(Br)cc2O)c1)Nc1cncc2ccccc12 was tested, and the IC50 was 3.23 µM.
O=C(Cc1cc(Cl)cc(NCc2ccc3c(c2)OCO3)c1)Nc1cncc2ccccc12 showed an IC50 of 2.52 µM.
Molecule O=C(Nc1ccc2nncn2c1)c1ccc2scnc2c1 has an IC50 of over 99.5 µM.
Work on Cc1cc(Nc2cc(Cl)cc(CC(=O)Nc3cncc4ccccc34)c2)cnc1Br yielded an IC50 of 1.95 µM.
Work on Cc1cccc(CC2CCN(C(=O)CCl)CC2)c1 yielded an IC50 of 14.7 µM.
With Cc1cccc(C2CN(C(=O)CCl)Cc3ccccc32)c1 (configuration not stated) the IC50 was 2 µM.
COc1ccc(C2CC(c3ccccc3)=NN2C(=O)CCl)cc1OC (configuration not stated) was tested, and the IC50 was 0.543 µM.
Work on O=C1N(c2cncc3ccccc23)CCC12CN(S(=O)(=O)CC1(C(F)F)CC1)Cc1ccc(Cl)cc12 (configuration not stated) yielded an IC50 of 0.155 µM.
O=C(Cc1cc(Cl)cc(Nc2ccc(Br)nc2)c1)Nc1cncc2ccccc12 was tested, and the IC50 was 1.94 µM.
In the case of Cn1c(NCc2cn3ccnc3s2)nc2ccccc21, the IC50 is reported as over 99.5 µM.
Cc1c(Br)cccc1Nc1cc(Cl)cc(CC(=O)Nc2cncc3ccccc23)c1 was tested, and the IC50 was 2.13 µM.
Cc1cc(Nc2cc(Cl)cc(CC(=O)Nc3cncc4ccccc34)c2)c(Cl)cc1F gave an IC50 of 2.15 µM.
Molecule NS(=O)(=O)NCCNS(=O)(=O)c1ccccc1[N+](=O)[O-] has an IC50 of over 99.5 µM.
For O=C(Nc1cncc2ccc(C(F)(F)F)cc12)C1CCOc2ccc(Cl)cc21 (configuration not stated), the IC50 was over 99.5 µM.
C=CC(=O)N(c1ccc(C(C)(C)C)cc1)C(C(=O)NC(C)(C)C)c1cncc(Cl)c1 (configuration not stated) gave an IC50 of 65.6 µM.
CCOC(=O)c1cccc(NC(=O)[C@@H]2CN(C(=O)CCl)CCN2S(=O)(=O)c2ccsc2)c1 (stereo in doubt) was tested, and the IC50 was 0.459 µM.
Molecule Nc1ccccc1-c1nc2ccccc2n1-c1cc(Cl)cc(CC(=O)Nc2cncc3ccccc23)c1 has an IC50 of 5.09 µM.
C=CC(=O)N(c1ccc(C(F)(F)F)cc1)C(C(=O)NCCc1cccc(F)c1)c1cncc(C)c1 (configuration not stated) showed an IC50 of 24.3 µM.
Work on Cc1nn(-c2cc(Cl)cc(CC(=O)Nc3cncc4ccccc34)c2)c(N)c1Br yielded an IC50 of 1.72 µM.
For O=C(c1cc(F)cc(F)c1)N1CCOc2cc(O)ccc2C1, the IC50 was over 99.5 µM.
For O=C(NCCO)c1ccc(N(C(=O)c2cocn2)C(C(=O)NCCc2cccc(F)c2)c2cccnc2)cc1 (configuration not stated), the IC50 was over 99.5 µM.
Cc1cc(Nc2cc(Cl)cc(CC(=O)Nc3cncc4ccccc34)c2)cc(C)c1Br was tested, and the IC50 was 2.14 µM.
Molecule Cc1noc(C)c1S(=O)(=O)N1CCN(C(=O)CCl)CC1 has an IC50 of 4.06 µM.
With CC(C)(C)c1ccc(N(C(=O)c2[nH]nc(O)c2CCO)C(C(=O)NCCc2cccc(F)c2)c2cccnc2)cc1 (configuration not stated) the IC50 was over 99.5 µM.
O=C(Cc1cc(Cl)cc(Nc2cccc3ccc(O)cc23)c1)Nc1cncc2ccccc12 gave an IC50 of 3.2 µM.
O=C1Cc2ccccc2N(C(=O)Cc2cccc(Cl)c2)C1 was tested, and the IC50 was over 99.5 µM.
For CN(C)S(=O)(=O)c1cccc(C(=O)Nc2c(-c3ccccc3)nc3sccn23)c1, the IC50 was 0.975 µM.

Source: the COVID Moonshot data (paper PMC7615835)
